# Legend:
# human EHMT2 913-1193 = molecular target: T1, human EHMT2 913-1193 (Homo sapiens, UniProt Q96KQ7); assay: EHMT2 enzyme assay on histone peptide substrate (3H-SAM SPA); settings: EHMT2 IC50, recombinant human EHMT2 913-1193, histone peptide substrate
# T1 sequence (Q96KQ7 913-1193): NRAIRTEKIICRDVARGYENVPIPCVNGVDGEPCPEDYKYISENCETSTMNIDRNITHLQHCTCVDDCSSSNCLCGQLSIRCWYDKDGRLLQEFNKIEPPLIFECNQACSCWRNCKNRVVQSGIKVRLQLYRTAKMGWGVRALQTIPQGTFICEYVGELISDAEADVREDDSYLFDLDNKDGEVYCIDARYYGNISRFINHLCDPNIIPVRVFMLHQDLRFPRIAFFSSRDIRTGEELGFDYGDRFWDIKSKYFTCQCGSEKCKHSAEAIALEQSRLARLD
# human EHMT1 982-1266 = molecular target: T2, human EHMT1 982-1266 (Homo sapiens, UniProt Q9H9B1); assay: EHMT1 enzyme assay on histone peptide substrate (3H-SAM SPA); settings: EHMT1 IC50, recombinant human EHMT1 982-1266, histone peptide substrate
# T2 sequence (Q9H9B1 982-1266): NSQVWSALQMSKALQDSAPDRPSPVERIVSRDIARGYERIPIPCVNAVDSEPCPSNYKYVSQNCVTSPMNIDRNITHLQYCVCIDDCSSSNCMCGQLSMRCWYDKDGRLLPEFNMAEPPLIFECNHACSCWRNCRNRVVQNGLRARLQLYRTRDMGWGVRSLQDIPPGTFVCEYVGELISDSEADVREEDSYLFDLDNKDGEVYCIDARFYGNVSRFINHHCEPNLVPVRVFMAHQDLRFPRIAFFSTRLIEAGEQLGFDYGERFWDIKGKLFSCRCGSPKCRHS
# H3K9me2 in HCT116 cells = assay: HCT116 H3K9me2 in-cell western assay; format: cell-based; settings: Homo sapiens, HCT-116, 72 h, HCT116 cells, 72 hours incubation; read-out: H3K9me2 ICW IC50
# Method in brief: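 HCT116 cells (2,000/well) were treated for 72 h at 37° C, 5% CO2, with ten two-fold dilutions from 10 μM in duplicate. After PFA fixation, cells were stained overnight at 4° C with anti-H3K9me2, then with an 800 CW secondary plus DRAQ5.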
SMILES,IC50 (human EHMT2 913-1193) [µM],IC50 (human EHMT1 982-1266) [µM],IC50 (H3K9me2 in HCT116 cells) [µM]
CNc1nc(Nc2cc3c(c(C4=CCNCCC4)c2F)OCC3)nc(C)c1Cl [Compound 224],< 0.1,< 0.1,< 0.1
[2H]Cc1nc(Nc2cc3c(c(C4=CCNCCC4)c2F)OCC3)nc(NC([2H])([2H])[2H])c1F [Compound 225],< 0.1,< 0.1,< 0.1
[2H]Cc1nc(Nc2cc3c(c(C4=CCNCCC4)c2F)OCC3)nc(NCC([2H])([2H])[2H])c1F [Compound 226],0.1 to 0.5,< 0.1,0.1 to 0.5
[2H]C([2H])([2H])N1CC=C(c2c(F)c(Nc3nc(C)cc(NC)n3)cc3c2OCC3)CCC1 [Compound 227],< 0.1,< 0.1,< 0.1
[2H]C([2H])([2H])Nc1nc(Nc2cc3c(c(C4=CCN(C)CCC4)c2F)OCC3)nc(C)c1F [Compound 228],0.1 to 0.5,< 0.1,0.1 to 0.5
[2H]Cc1nc(Nc2cc3c(c(C4=CCNCCC4)c2)OCC3)nc(NC)c1F [Compound 229],0.1 to 0.5,< 0.1,0.1 to 0.5
[2H]Cc1cc(NC([2H])([2H])[2H])nc(Nc2cc3c(c(C4=CCN(C)CCC4)c2)OCCO3)n1 [Compound 230],0.1 to 0.5,< 0.1,0.1 to 0.5
[2H]C([2H])([2H])CNc1cc(C)nc(Nc2cc3c(c(C4=CCNCCC4)c2F)OCC3)n1 [Compound 231],< 0.1,< 0.1,< 0.1
[2H]Cc1nc(Nc2cc3c(c(C4=CCNCCC4)c2)OCC3)nc(NC([2H])([2H])[2H])c1F [Compound 232],0.1 to 0.5,0.1 to 0.5,0.1 to 0.5
[2H]Cc1nc(Nc2cc3c(c(C4=CCNCCC4)c2)OCO3)nc(NCC([2H])([2H])[2H])c1F [Compound 233],0.5 to 2,0.1 to 0.5,0.5 to 2
[2H]Cc1cc(NC([2H])([2H])[2H])nc(Nc2cc3c(c(C4=CCN(C)CCC4)c2F)OCC3)n1 [Compound 234],< 0.1,< 0.1,< 0.1
[2H]Cc1nc(Nc2cc3c(c(C4=CCNCCC4)c2F)OCC3)nc(NC)c1F [Compound 235],< 0.1,< 0.1,< 0.1
CNc1cc(Nc2cc3c(c(C4=CCN(C)CCC4)c2F)OCCC3)nc(C)c1F [Compound 236],0.1 to 0.5,< 0.1,0.1 to 0.5
[2H]Cc1nc(Nc2cc3c(c(C4=CCNCCC4)c2)OCC3)nc(NCC([2H])([2H])[2H])c1F [Compound 237],0.5 to 2,0.1 to 0.5,0.1 to 0.5
[2H]C([2H])([2H])Nc1cc(C)nc(Nc2cc3c(c(C4=CCN(C)CCC4)c2F)OCC3)n1 [Compound 238],< 0.1,< 0.1,< 0.1
CCNc1nc(Nc2cc3c(c(C4=CCNCCC4)c2F)OCC3)nc(C)c1F [Compound 239],0.1 to 0.5,< 0.1,0.1 to 0.5
[2H]Cc1nc(Nc2cc3c(c(C4=CCNCCC4)c2)OCO3)nc(NC([2H])([2H])[2H])c1F [Compound 240],0.1 to 0.5,0.1 to 0.5,0.1 to 0.5
CCNc1nc(Nc2cc3c(c(C4=CCN(C)CCC4)c2F)OCC3)nc(C)c1F [Compound 241],0.5 to 2,0.1 to 0.5,0.1 to 0.5
CNc1nc(Nc2cc3c(c(C4=CCNCCC4)c2F)OCC3)nc(C)c1F [Compound 242],< 0.1,< 0.1,< 0.1
CNc1cc(Nc2cc3c(c(C4=CCNCCC4)c2F)OCCC3)nc(C)c1F [Compound 243],< 0.1,< 0.1,< 0.1

SMILES,IC50 (human EHMT2 913-1193) [µM],IC50 (human EHMT1 982-1266) [µM],IC50 (H3K9me2 in HCT116 cells) [µM]
[2H]C([2H])([2H])CNc1cc(C)nc(Nc2cc3c(c(C4=CCN(C)CCC4)c2)OCO3)n1 [Compound 244],0.1 to 0.5,< 0.1,0.1 to 0.5
CNc1nc(Nc2cc3c(c(C4=CCN(C)CCC4)c2F)OCC3)nc(C)c1F [Compound 245],0.5 to 2,0.1 to 0.5,0.1 to 0.5
[2H]C([2H])([2H])CNc1cc(C)nc(Nc2cc3c(c(C4=CCNCCC4)c2)OCO3)n1 [Compound 246],< 0.1,< 0.1,< 0.1
CNc1cc(CC(F)(F)F)nc(Nc2cc3c(c(C4=CCNCCC4)c2)OCC3)c1 [Compound 247],0.1 to 0.5,0.1 to 0.5,0.1 to 0.5
[2H]Cc1cc(NC)nc(Nc2cc3c(c(C4=CCNCCC4)c2)OCCC3)n1 [Compound 248],< 0.1,< 0.1,< 0.1
[2H]Cc1cc(NC([2H])([2H])[2H])nc(Nc2cc3c(c(C4=CCNCCC4)c2)OCCC3)n1 [Compound 250],< 0.1,< 0.1,< 0.1
[2H]Cc1cc(NC([2H])([2H])[2H])nc(Nc2cc3c(c(C4=CCN(C)CCC4)c2)OCCC3)n1 [Compound 251],< 0.1,< 0.1,< 0.1
[2H]Cc1cc(NC([2H])([2H])[2H])nc(Nc2cc3c(c(C4=CCNCCC4)c2)OCO3)n1 [Compound 252],< 0.1,< 0.1,< 0.1
[2H]Cc1cc(NC([2H])([2H])[2H])nc(Nc2cc3c(c(C4=CCN(C)CCC4)c2)OCO3)n1 [Compound 254],< 0.1,< 0.1,< 0.1
CNc1cc(Nc2cc3c(c(C4=CCN(C)CCC4)c2F)OCC3)nc(C)c1F [Compound 255],< 0.1,< 0.1,< 0.1
[2H]C([2H])([2H])Nc1nc(Nc2cc3c(c(C4=CCNCCC4)c2F)OCC3)nc(C)c1F [Compound 256],< 0.1,< 0.1,< 0.1
CNc1cc(Nc2cc3c(c(C4=CCNCCC4)c2F)OCC3)nc(C)c1F [Compound 257],< 0.1,< 0.1,< 0.1
[2H]C([2H])([2H])CNc1nc(Nc2cc3c(c(C4=CCNCCC4)c2F)OCC3)nc(C)c1F [Compound 258],0.1 to 0.5,0.1 to 0.5,0.1 to 0.5
[2H]C([2H])([2H])CNc1cc(C)nc(Nc2cc3c(c(C4=CCN(C)CCC4)c2)OCCC3)n1 [Compound 259],0.1 to 0.5,< 0.1,0.1 to 0.5
[2H]Cc1cc(NCC([2H])([2H])[2H])nc(Nc2cc3c(c(C4=CCN(C)CCC4)c2F)OCC3)n1 [Compound 260],< 0.1,< 0.1,< 0.1
[2H]C([2H])([2H])CNc1nc(Nc2cc3c(c(C4=CCN(C)CCC4)c2F)OCC3)nc(C)c1F [Compound 261],0.5 to 2,0.1 to 0.5,0.1 to 0.5
[2H]Cc1cc(NCC([2H])([2H])[2H])nc(Nc2cc3c(c(C4=CCNCCC4)c2F)OCC3)n1 [Compound 262],< 0.1,< 0.1,< 0.1
[2H]C([2H])([2H])CNc1cc(C)nc(Nc2cc3c(c(C4=CCNCCC4)c2)OCCC3)n1 [Compound 263],< 0.1,< 0.1,0.1 to 0.5
[2H]C([2H])([2H])Nc1cc(C)nc(Nc2cc3c(c(C4=CCNCCC4)c2)OCCC3)n1 [Compound 264],< 0.1,< 0.1,< 0.1
[2H]Cc1cc(NC)nc(Nc2cc3c(c(C4=CCN(C)CCC4)c2)OCO3)n1 [Compound 265],< 0.1,< 0.1,< 0.1

# Source: patent US20240368139A1, “NOVEL MODULATORS OF EHMT1 AND EHMT2 AND THERAPEUTIC USE THEREOF” (Tango Therapeutics, Inc., priority 2021, published 2024)
